These results are taken from patent US6022861A, “Ketoheterocyclic inhibitors of factor Xa” (COR Therapeutics, Inc., priority 1995, dated 2000).

The target in one data set is thrombin (Homo sapiens, UniProt P00734). Put plainly: Thrombin amidolytic assay (Chromozym TH). In kind it is biochemical. Particulars: read-out: Inhibitory Activity (IC50) Thrombin. As to the method: The compounds of the present invention are dissolved in buffer to give solutions containing concentrations such that assay concentrations range from 0 to 100 μM. In the assays for thrombin, prothrombinase and factor Xa, a synthetic chromogenic substrate is added to a solution containing test compound and the enzyme of interest and the residual catalytic activity of that enzyme is determined spectrophotometrically. The IC50 of a compound is determined from the substrate turnover.
The factor Xa and thrombin assays were performed at room temperature, in 0.02 M Tris·HCl buffer, pH 7.5, containing 0.15 M NaCl. The rates of hydrolysis of the para-nitroanilide substrate S-2765 (Chromogenix) for factor Xa, and the substrate Chromozym TH (Boehringer Mannheim) for thrombin following preincubation of the enzyme with inhibitor for 5 minutes at room temperature, and were determined using the Softmax 96-well plate reader (Molecular Devices), monitored at 405 nm to measure the time dependent appearance of p-nitroaniline.

A further data set addresses factor Xa (Homo sapiens, UniProt P00742). Put plainly: Factor Xa amidolytic assay (chromogenic substrate S-2765). In kind it is biochemical. Particulars: read-out: Inhibitory Activity (IC50) Factor Xa. As to the method:
(§1) In the assays for thrombin, prothrombinase and factor Xa, a synthetic chromogenic substrate is added to a solution containing test compound and the enzyme of interest and the residual catalytic activity of that enzyme is determined spectrophotometrically. The IC50 of a compound is determined from the substrate turnover.

The next data set deals with prothrombinase complex (Homo sapiens, UniProt P00742). As to the kind of experiment: Prothrombinase inhibition assay (plasma free system, Chromozym TH). In kind it is biochemical. Particulars: read-out: Inhibitory Activity (IC50) Prothrombinase. The protocol:
as §1

The subject of data set [1] is Rabbit Model of Venous Thrombosis. Put plainly: Rabbit deep vein thrombosis model, inhibition of thrombus growth. Particulars: for % Inhibition of Thrombosis: rabbit. In kind it is in vivo.
Excerpt: (§2) Rabbits were anesthetized with I.M. injections of Ketamine, Xylazine, and Acepromazine cocktail. A standardized protocol consisted of insertion of a thrombogenic cotton thread and copper wire apparatus into the abdominal vena cava of the anesthetized rabbit. A non-occlusive thrombus was allowed to develop in the central venous circulation and inhibition of thrombus growth was used as a measure of the antithrombotic activity of the studied compounds. Test agents or control saline were administered through a marginal ear vein catheter. A femoral vein catheter was used for blood sampling prior to and during steady state infusion of test compound. Initiation of thrombus formation begins immediately after advancement of the cotton thread apparatus into the central venous circulation. Test compounds were administered from time=30 min to time=150 min at which the experiment was terminated. The rabbits were euthanized and the thrombus excised by surgical dissection and characterized by weight and histology. Blood samples were analyzed for changes in hematological and coagulation parameters.
Data set [2] in a line: Coagulation parameters (aPTT, PT) in rabbit venous thrombosis model. Particulars: for PT fold increase over baseline / aPTT fold increase over baseline: steady state, mean ± SD. In kind it is in vivo.
Excerpt: as §2
For data set [3] the following is noted: rabbit, in vivo.
Excerpt: as §2
[4] abbreviates: highest dose (100 μg/kg+2.57 μg/kg/min).

factor Xa, sequence (P00742 41-179 limits assumed): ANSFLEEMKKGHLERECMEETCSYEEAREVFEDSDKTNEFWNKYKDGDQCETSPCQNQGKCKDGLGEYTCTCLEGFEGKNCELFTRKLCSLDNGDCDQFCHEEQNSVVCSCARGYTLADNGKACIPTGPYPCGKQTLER
factor Xa, sequence (P00742 235-488 limits assumed): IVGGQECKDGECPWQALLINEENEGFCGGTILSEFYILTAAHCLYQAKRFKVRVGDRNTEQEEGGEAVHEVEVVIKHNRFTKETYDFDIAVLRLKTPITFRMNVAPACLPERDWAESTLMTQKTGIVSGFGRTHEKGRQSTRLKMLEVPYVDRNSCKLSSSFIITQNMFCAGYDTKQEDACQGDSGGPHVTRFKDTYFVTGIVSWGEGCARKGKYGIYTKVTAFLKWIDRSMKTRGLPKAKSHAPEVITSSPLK
prothrombinase complex, sequence (P00742 41-179 limits assumed): as the sequence (P00742 41-179 limits assumed) above
prothrombinase complex, sequence (P00742 235-488 limits assumed): as the sequence (P00742 235-488 limits assumed) above
prothrombinase complex, sequence (P12259 29-737 partner limits assumed): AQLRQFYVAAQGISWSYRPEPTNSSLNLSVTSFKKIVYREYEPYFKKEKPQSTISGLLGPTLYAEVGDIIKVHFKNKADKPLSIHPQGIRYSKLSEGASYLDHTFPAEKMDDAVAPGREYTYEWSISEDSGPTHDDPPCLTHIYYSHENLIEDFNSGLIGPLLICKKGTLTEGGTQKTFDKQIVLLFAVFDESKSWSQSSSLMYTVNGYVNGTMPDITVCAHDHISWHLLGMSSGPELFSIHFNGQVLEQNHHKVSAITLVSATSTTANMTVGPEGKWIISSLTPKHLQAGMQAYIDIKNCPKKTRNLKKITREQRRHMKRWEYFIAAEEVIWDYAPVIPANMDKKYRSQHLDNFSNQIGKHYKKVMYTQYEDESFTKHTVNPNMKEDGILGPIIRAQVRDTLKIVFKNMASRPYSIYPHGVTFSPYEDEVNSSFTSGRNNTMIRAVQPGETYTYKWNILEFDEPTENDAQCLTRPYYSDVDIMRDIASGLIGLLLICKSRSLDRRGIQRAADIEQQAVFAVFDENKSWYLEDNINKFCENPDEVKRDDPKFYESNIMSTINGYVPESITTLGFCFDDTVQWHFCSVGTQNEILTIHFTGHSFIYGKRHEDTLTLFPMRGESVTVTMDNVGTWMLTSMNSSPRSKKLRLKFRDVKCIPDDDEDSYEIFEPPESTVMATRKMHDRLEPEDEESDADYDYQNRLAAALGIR
prothrombinase complex, sequence (P12259 1574-2224 partner limits assumed): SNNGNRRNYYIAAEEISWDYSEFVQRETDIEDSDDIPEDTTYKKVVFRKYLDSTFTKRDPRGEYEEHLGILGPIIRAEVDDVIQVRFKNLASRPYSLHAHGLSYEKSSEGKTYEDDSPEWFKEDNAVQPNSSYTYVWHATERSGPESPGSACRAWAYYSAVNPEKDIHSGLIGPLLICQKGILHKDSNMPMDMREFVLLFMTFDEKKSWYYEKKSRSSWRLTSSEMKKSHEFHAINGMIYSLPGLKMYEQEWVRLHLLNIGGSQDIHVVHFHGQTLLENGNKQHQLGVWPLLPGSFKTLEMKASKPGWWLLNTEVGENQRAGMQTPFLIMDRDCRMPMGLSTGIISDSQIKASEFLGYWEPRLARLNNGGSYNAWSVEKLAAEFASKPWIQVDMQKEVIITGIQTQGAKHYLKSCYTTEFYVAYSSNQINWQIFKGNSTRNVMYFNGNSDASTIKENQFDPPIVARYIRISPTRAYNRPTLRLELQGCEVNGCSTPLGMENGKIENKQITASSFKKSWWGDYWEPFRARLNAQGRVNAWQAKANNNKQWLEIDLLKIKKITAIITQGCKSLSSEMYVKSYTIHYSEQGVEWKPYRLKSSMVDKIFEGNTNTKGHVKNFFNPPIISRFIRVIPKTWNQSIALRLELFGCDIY

As a reminder, the IC50 is the concentration that inhibits the measured activity by half. Consider `N=C(N)NCCC[C@H](NC(=O)CNC(=O)[C@@H](CCCNC(=N)N)NS(=O)(=O)Cc1ccccc1)C(=O)c1nccs1` [BriSO2 -(D)-Arg-Gly-Arg-thiazole, BnSO2 -(D)-Ar g-Gly-Arg-Thiazole], for which the half-inhibitory concentration (IC50) at thrombin was 10 µM.

For `NC(N)=NCCCC(N)C(=O)NCC(=O)NC(CCCN=C(N)N)C(=O)c1nccs1` [H-D-Arg-Gly-Arg-thiazole, H-(D)-Arg-Gly-Arg-Thiazole], the figures for the IC50 on factor Xa, at prothrombinase complex and on thrombin were 0.011 µM, 0.01 µM and 41 µM, respectively. In addition, the “antithrombotic efficacy in the rabbit venous thrombosis model” value in data set [1] (at the higher doses evaluated) is “demonstrated antithrombotic efficacy”. Further, the “% Inhibition of Thrombosis” value in data set [1] (dose regimen 50 + 1.28 (μg/kg + μg/kg/min)) was -7.84%; in data set [1] (dose regimen 75 + 1.93 (μg/kg + μg/kg/min)) it was 42.95%; in data set [1] (dose regimen 100 + 2.57 (μg/kg + μg/kg/min)) it was 117.72%. Besides, the “PT fold increase over baseline” value in data set [2] (50 + 1.28 (μg/kg + μg/kg/min)) was determined as 1.00 ± 0.00 fold; in data set [2] (75 + 1.93 (μg/kg + μg/kg/min)) it was 1.00 ± 0.00 fold; in data set [2] (100 + 2.57 (μg/kg + μg/kg/min)), 0.83 ± 0.00 fold. Further, the figures for the “aPTT fold increase over baseline” value in data set [2] (50 + 1.28 (μg/kg + μg/kg/min)), in data set [2] (75 + 1.93 (μg/kg + μg/kg/min)) and in data set [2] (100 + 2.57 (μg/kg + μg/kg/min)) were 1.00 ± 0.03 fold, 1.02 ± 0.03 fold and 1.08 ± 0.02 fold, respectively. Also, the “effect on PT prolongation” value in data set [2] (setting [4]) is “no significant effect”. Besides, in data set [2] (setting [4]), the “effect on aPTT prolongation” value is recorded as “no significant effect”. For the same molecule, the “effects on hematological parameters” value in data set [3] is listed as “no significant effects”.
